Results taken from PubChem BioAssay AID2060906 (Molecular Pharmacology Branch, DTP, NCI, 2025).
Blank lines part the entries; values can stand above or below the compound they belong to.

Test system: 485176-168-R4-J1-PDC complex spheroid growth
Test: Anticancer human tumor 485176-168-R4-J1-PDC patient-derived pancreatic adenocarcinoma cell line growth inhibition [RAS]
Details: for IC50: curve of first compound; for viability, T/C: stronger effect = lower value
Procedure, shortened: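 Multi-cell-type spheroids: tumor cells plus HUVEC endothelial cells and mesenchymal stem cells. RAS-pathway inhibitors were combined with targeted agents, each dosed in half-log steps down from clinical Cmax, or from 10 microM when Cmax was unknown.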

[1] = second compound 0.00316 µM, first compound 0.00316 µM
[2] = second compound 0.00316 µM, first compound 0.01 µM
[3] = second compound 0.00316 µM, first compound 0.0316 µM
[4] = second compound 0.00316 µM, first compound 0.1 µM
[5] = second compound 0.00316 µM, first compound 0.316 µM
[6] = second compound 0.00316 µM, first compound 1 µM
[7] = second compound 0.01 µM, first compound 0.00316 µM
[8] = second compound 0.01 µM, first compound 0.01 µM
[9] = second compound 0.01 µM, first compound 0.0316 µM
[10] = second compound 0.01 µM, first compound 0.1 µM
[11] = second compound 0.01 µM, first compound 0.316 µM
[12] = second compound 0.01 µM, first compound 1 µM
[13] = second compound 0.0316 µM, first compound 0.00316 µM
[14] = second compound 0.0316 µM, first compound 0.01 µM
[15] = second compound 0.0316 µM, first compound 0.0316 µM
[16] = second compound 0.0316 µM, first compound 0.1 µM
[17] = second compound 0.0316 µM, first compound 0.316 µM
[18] = second compound 0.0316 µM, first compound 1 µM
[19] = second compound 0.1 µM, first compound 0.00316 µM
[20] = second compound 0.1 µM, first compound 0.01 µM
[21] = second compound 0.1 µM, first compound 0.0316 µM
[22] = second compound 0.1 µM, first compound 0.1 µM
[23] = second compound 0.1 µM, first compound 0.316 µM
[24] = second compound 0.1 µM, first compound 1 µM
[25] = second compound 0.316 µM, first compound 0.00316 µM
[26] = second compound 0.316 µM, first compound 0.01 µM
[27] = second compound 0.316 µM, first compound 0.0316 µM
[28] = second compound 0.316 µM, first compound 0.1 µM
[29] = second compound 0.316 µM, first compound 0.316 µM
[30] = second compound 0.316 µM, first compound 1 µM
[31] = second compound 1 µM, first compound 0.00316 µM
[32] = second compound 1 µM, first compound 0.01 µM
[33] = second compound 1 µM, first compound 0.0316 µM
[34] = second compound 1 µM, first compound 0.1 µM
[35] = second compound 1 µM, first compound 0.316 µM
[36] = second compound 1 µM, first compound 1 µM
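Also: spheroids exposed to compounds for seven days before readout.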
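For viability, T/C in this document: luminescence viability expressed relative to DMSO vehicle wells set as 100%.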

IC50 (second compound 0.0316 µM): > 0.3 µM
IC50 (second compound 0.1 µM): > 0.3 µM
IC50 (second compound 0.316 µM): > 0.3 µM
IC50 (second compound 1 µM): 0.262 µM
IC50 (second compound 3.16 µM): > 0.3 µM
IC50 (second compound 10 µM): 0.114 µM
Structure (SMILES): CC1(C)CCC(Nc2ncc(C(F)(F)F)c(-c3c[nH]c4c(P(C)(C)=O)c(C#N)ccc34)n2)CN1 (stereo not drawn) + C#Cc1c(F)ccc2cc(O)cc(-c3ncc4c(N5CC6CCC(C5)N6)nc(OCC56CCCN5CC(F)C6)nc4c3F)c12
viability, T/C (second compound 0.0316 µM, first compound 0.000949 µM): 106%
viability, T/C (second compound 0.0316 µM, first compound 0.003 µM): 98.2%
viability, T/C (second compound 0.0316 µM, first compound 0.00949 µM): 83.8%
viability, T/C (second compound 0.0316 µM, first compound 0.03 µM): 59.8%
viability, T/C (second compound 0.0316 µM, first compound 0.0949 µM): 61.8%
viability, T/C (second compound 0.0316 µM, first compound 0.3 µM): 56.2%
viability, T/C (second compound 0.1 µM, first compound 0.000949 µM): 98.5%
viability, T/C (second compound 0.1 µM, first compound 0.003 µM): 114%
viability, T/C (second compound 0.1 µM, first compound 0.00949 µM): 79.1%
viability, T/C (second compound 0.1 µM, first compound 0.03 µM): 59.7%
viability, T/C (second compound 0.1 µM, first compound 0.0949 µM): 56.9%
viability, T/C (second compound 0.1 µM, first compound 0.3 µM): 50%
viability, T/C (second compound 0.316 µM, first compound 0.000949 µM): 106%
viability, T/C (second compound 0.316 µM, first compound 0.003 µM): 121%
viability, T/C (second compound 0.316 µM, first compound 0.00949 µM): 84.5%
viability, T/C (second compound 0.316 µM, first compound 0.03 µM): 55.8%
viability, T/C (second compound 0.316 µM, first compound 0.0949 µM): 53.1%
viability, T/C (second compound 0.316 µM, first compound 0.3 µM): 60.5%
viability, T/C (second compound 1 µM, first compound 0.000949 µM): 118%
viability, T/C (second compound 1 µM, first compound 0.003 µM): 96%
viability, T/C (second compound 1 µM, first compound 0.00949 µM): 80.5%
viability, T/C (second compound 1 µM, first compound 0.03 µM): 68.1%
viability, T/C (second compound 1 µM, first compound 0.0949 µM): 53.5%
viability, T/C (second compound 1 µM, first compound 0.3 µM): 50.4%
viability, T/C (second compound 3.16 µM, first compound 0.000949 µM): 107%
viability, T/C (second compound 3.16 µM, first compound 0.003 µM): 97.9%
viability, T/C (second compound 3.16 µM, first compound 0.00949 µM): 84.5%
viability, T/C (second compound 3.16 µM, first compound 0.03 µM): 63.8%
viability, T/C (second compound 3.16 µM, first compound 0.0949 µM): 58.3%
viability, T/C (second compound 3.16 µM, first compound 0.3 µM): 53%
viability, T/C (second compound 10 µM, first compound 0.000949 µM): 99.3%
viability, T/C (second compound 10 µM, first compound 0.003 µM): 89.3%
viability, T/C (second compound 10 µM, first compound 0.00949 µM): 81.2%
viability, T/C (second compound 10 µM, first compound 0.03 µM): 68.7%
viability, T/C (second compound 10 µM, first compound 0.0949 µM): 46.2%
viability, T/C (second compound 10 µM, first compound 0.3 µM): 46.4%

IC50 (second compound 0.00316 µM): > 1 µM
IC50 (second compound 0.01 µM): > 1 µM
IC50 (second compound 0.0316 µM): > 1 µM
IC50 (second compound 0.1 µM): > 1 µM
IC50 (second compound 0.316 µM): > 1 µM
IC50 (second compound 1 µM): > 1 µM
Structure (SMILES): C=CC(=O)Nc1cc(Nc2nccc(-c3cn(C)c4ccccc34)n2)c(OC)cc1N(C)CCN(C)C + C=CC(=O)N1CCN(c2nc(OCC3CCCN3C)nc3c(F)c(-c4nc(N)cc(C)c4C(F)(F)F)c(Cl)cc23)C(C)C1
viability, T/C [1]: 101%
viability, T/C [2]: 111%
viability, T/C [3]: 102%
viability, T/C [4]: 100%
viability, T/C [5]: 81.6%
viability, T/C [6]: 75.6%
viability, T/C [7]: 94.8%
viability, T/C [8]: 102%
viability, T/C [9]: 109%
viability, T/C [10]: 104%
viability, T/C [11]: 96.7%
viability, T/C [12]: 67.8%
viability, T/C [13]: 111%
viability, T/C [14]: 122%
viability, T/C [15]: 104%
viability, T/C [16]: 99.7%
viability, T/C [17]: 74.8%
viability, T/C [18]: 73.9%
viability, T/C [19]: 95.7%
viability, T/C [20]: 94.2%
viability, T/C [21]: 98.7%
viability, T/C [22]: 104%
viability, T/C [23]: 90.9%
viability, T/C [24]: 52.5%
viability, T/C [25]: 110%
viability, T/C [26]: 102%
viability, T/C [27]: 90.8%
viability, T/C [28]: 101%
viability, T/C [29]: 84.7%
viability, T/C [30]: 66.9%
viability, T/C [31]: 113%
viability, T/C [32]: 99.6%
viability, T/C [33]: 100%
viability, T/C [34]: 81%
viability, T/C [35]: 75.5%
viability, T/C [36]: 57.9%

IC50 (second compound 0.00316 µM): > 10 µM
IC50 (second compound 0.01 µM): > 10 µM
IC50 (second compound 0.0316 µM): > 10 µM
IC50 (second compound 0.1 µM): > 10 µM
IC50 (second compound 0.316 µM): > 10 µM
IC50 (second compound 1 µM): 8.19 µM
Structure (SMILES): CC(Nc1ccc2c(c1)OCCn1cc(N3C(=O)OCC3C(F)F)nc1-2)C(N)=O (stereo not drawn) + C=CC(=O)N1CCN(c2nc(OCC3CCCN3C)nc3c(F)c(-c4nc(N)cc(C)c4C(F)(F)F)c(Cl)cc23)C(C)C1
viability, T/C [3]: 91.2%
viability, T/C [4]: 83.3%
viability, T/C [5]: 64.8%
viability, T/C [6]: 69.9%
viability, T/C (second compound 0.00316 µM, first compound 3.16 µM): 58.1%
viability, T/C (second compound 0.00316 µM, first compound 10 µM): 52.1%
viability, T/C [9]: 90.3%
viability, T/C [10]: 98.4%
viability, T/C [11]: 88.9%
viability, T/C [12]: 73.6%
viability, T/C (second compound 0.01 µM, first compound 3.16 µM): 77.9%
viability, T/C (second compound 0.01 µM, first compound 10 µM): 59.1%
viability, T/C [15]: 102%
viability, T/C [16]: 78.5%
viability, T/C [17]: 79%
viability, T/C [18]: 81.8%
viability, T/C (second compound 0.0316 µM, first compound 3.16 µM): 63.6%
viability, T/C (second compound 0.0316 µM, first compound 10 µM): 62.8%
viability, T/C [21]: 82.9%
viability, T/C [22]: 99%
viability, T/C [23]: 63%
viability, T/C [24]: 60.2%
viability, T/C (second compound 0.1 µM, first compound 3.16 µM): 61.8%
viability, T/C (second compound 0.1 µM, first compound 10 µM): 43.6%
viability, T/C [27]: 108%
viability, T/C [28]: 83%
viability, T/C [29]: 81.5%
viability, T/C [30]: 69.8%
viability, T/C (second compound 0.316 µM, first compound 3.16 µM): 75.6%
viability, T/C (second compound 0.316 µM, first compound 10 µM): 57.3%
viability, T/C [33]: 85.9%
viability, T/C [34]: 85.7%
viability, T/C [35]: 69.5%
viability, T/C [36]: 76.3%
viability, T/C (second compound 1 µM, first compound 3.16 µM): 55.7%
viability, T/C (second compound 1 µM, first compound 10 µM): 48.8%

IC50 (second compound 0.00316 µM): 0.23 µM
IC50 (second compound 0.01 µM): 0.212 µM
IC50 (second compound 0.0316 µM): 0.195 µM
IC50 (second compound 0.1 µM): 0.327 µM
IC50 (second compound 0.316 µM): 0.148 µM
IC50 (second compound 1 µM): 0.324 µM
Structure (SMILES): O=C(c1ccc(F)c(F)c1Nc1ccc(I)cc1F)N1CC(O)([C@@H]2CCCCN2)C1 + C=CC(=O)N1CCN(c2nc(OCC3CCCN3C)nc3c(F)c(-c4nc(N)cc(C)c4C(F)(F)F)c(Cl)cc23)C(C)C1
viability, T/C [1]: 86%
viability, T/C [2]: 90.4%
viability, T/C [3]: 72%
viability, T/C [4]: 61.1%
viability, T/C [5]: 47.1%
viability, T/C [6]: 33%
viability, T/C [7]: 105%
viability, T/C [8]: 80.9%
viability, T/C [9]: 70.3%
viability, T/C [10]: 61.9%
viability, T/C [11]: 48.5%
viability, T/C [12]: 30.9%
viability, T/C [13]: 96.1%
viability, T/C [14]: 90.7%
viability, T/C [15]: 77%
viability, T/C [16]: 55.5%
viability, T/C [17]: 47.4%
viability, T/C [18]: 35.9%
viability, T/C [19]: 96.4%
viability, T/C [20]: 82.5%
viability, T/C [21]: 73.5%
viability, T/C [22]: 69.2%
viability, T/C [23]: 49.4%
viability, T/C [24]: 34.4%
viability, T/C [25]: 90.6%
viability, T/C [26]: 86.2%
viability, T/C [27]: 84.1%
viability, T/C [28]: 52.6%
viability, T/C [29]: 49.2%
viability, T/C [30]: 37.1%
viability, T/C [31]: 86.1%
viability, T/C [32]: 72.9%
viability, T/C [33]: 58%
viability, T/C [34]: 70.8%
viability, T/C [35]: 50.8%
viability, T/C [36]: 36.6%
